Laboratory results as given in PubChem BioAssay (NCI).
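Grown in 96-well plates, cells were treated for 48 hours with each compound at five concentrations. Insufficient inhibition: endpoint recorded as highest concentration tested. GI50 marks 50% less growth. Definition used: TGI = concentration required for complete inhibition of growth.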

Experiments:
Assay in all cases: inhibition of tumour cell growth, NCI panel, 48 h
UACC-62 melanoma = tested on: UACC-62 melanoma
MOLT-4 leukemia = tested on: MOLT-4 leukemia
SNB-75 CNS = tested on: SNB-75 CNS
HCT-116 colon = tested on: HCT-116 colon
HCC-2998 colon = tested on: HCC-2998 colon
NCI-H522 lung = tested on: NCI-H522 lung
RPMI-8226 leukemia = tested on: RPMI-8226 leukemia
ACHN renal = tested on: ACHN renal
MDA-MB-435 = tested on: MDA-MB-435
SF-268 CNS = tested on: SF-268 CNS

Row | SMILES | GI50 (UACC-62 melanoma) [µM] | TGI (UACC-62 melanoma) [µM] | GI50 (MOLT-4 leukemia) [µM] | TGI (MOLT-4 leukemia) [µM] | GI50 (SNB-75 CNS) [µM] | TGI (SNB-75 CNS) [µM] | GI50 (HCT-116 colon) [µM] | TGI (HCT-116 colon) [µM] | GI50 (HCC-2998 colon) [µM] | TGI (HCC-2998 colon) [µM] | GI50 (NCI-H522 lung) [µM] | TGI (NCI-H522 lung) [µM] | GI50 (RPMI-8226 leukemia) [µM] | TGI (RPMI-8226 leukemia) [µM] | GI50 (ACHN renal) [µM] | TGI (ACHN renal) [µM] | GI50 (MDA-MB-435) [µM] | TGI (MDA-MB-435) [µM] | GI50 (SF-268 CNS) [µM] | TGI (SF-268 CNS) [µM]
1 | Oc1ccccc1/C=N\NC(=S)N/N=C/c1ccccc1O | 1.23 | 7.56 | 1.43 | 22.4 | 2.24 | 38.2 | 1.37 | > 100 | 3.62 | > 100 | 5.76 | 36.5 | 2.77 | 34.2 | 1.77 | > 100 | 1.97 | 25.3 | 1.08 | 44.1
2 | COC(=O)c1oc2c(C(=O)/C=C/c3ccc(OC)cc3)c(OCCN3CCOCC3)ccc2c1C | 1.55 | 3.19 | 1.24 | 3.72 | 1.83 | 6.77 | 1.6 | 4.55 | 1.64 | 3.17 | 1.61 | 3.54 | 1.57 | 4.2 | 1.73 | 3.62 | 2.37 | 7.34 | 2.05 | 5.76
3 | COc1ccc(OC)c(/C=C/c2ccnc3ccccc23)c1 | – | 7.59 | – | 16.2 | – | 0.977 | – | 8.09 | – | 12.9 | – | 1.79 | – | 26.3 | – | 18.8 | – | 0.331 | – | 18.2
4 | Cn1c(=O)c(Oc2ccc(F)cc2F)cc2cnc(NC3CCOCC3)nc21 | > 25 | > 25 | > 25 | > 25 | > 15.5 | > 25 | > 25 | > 25 | > 25 | > 25 | > 25 | > 25 | > 21.1 | > 25 | > 25 | > 25 | > 25 | > 25 | > 25 | > 25
5 | CC1(C)CCC(C)(C)c2cc(NC(=O)c3ccc(C(=O)O)cc3)ccc21 | – | 39.4 | – | > 100 | – | > 100 | – | 55.7 | – | > 60 | – | > 89.3 | – | > 100 | – | > 100 | – | > 77.8 | – | > 100
6 | CN(C)CCS(=O)(=O)Nc1cc(-c2ccc3ncc(C#N)c(Nc4ccc(F)c(Cl)c4)c3c2)cnc1Cl | 0.169 | 0.63 | 0.12 | 0.547 | < 0.0152 | 0.562 | 0.214 | 0.69 | 0.198 | 0.393 | 0.202 | 0.883 | 0.223 | 0.897 | 0.546 | > 100 | 0.374 | 3 | 0.122 | 0.692
7 | CN(C)C=Nc1c(I)cc(I)c(CCC(=O)O)c1I | > 100 | > 100 | > 100 | > 100 | > 100 | > 100 | > 100 | > 100 | > 100 | > 100 | > 100 | > 100 | > 100 | > 100 | > 100 | > 100 | > 100 | > 100 | > 100 | > 100
8 | OCC1CCCC1O (centres undefined) | – | > 100 | – | > 100 | – | > 100 | – | > 100 | – | > 100 | – | > 100 | – | > 100 | – | > 100 | – | > 100 | – | > 100
9 | COc1ccc2c(c1)C(c1cc(OC)c3c(c1)OCO3)C1=C(COC1=O)N2 (centres undefined) | 0.0984 | > 100 | 0.51 | > 100 | 0.381 | 37.6 | 0.417 | > 34.8 | 0.432 | – | 0.039 | 0.232 | 0.461 | > 100 | 1.57 | > 100 | 0.049 | 0.287 | 0.691 | > 89.2
